In ChEMBL document CHEMBL1201862, “PubChem BioAssay data set” (2004):
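1) Cells in 96-well plates. 2) Compound, 48 h, 5 concentrations. 3) Linear interpolation between surrounding doses. 4) Unreached endpoint = highest concentration. GI50 = concentration required for 50% inhibition of growth.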 The source made the active and inactive calls. Cut-off read from the data, not from the text of the source: active = GI50 up to about 1.1 µM and inactive = higher.

How the values were obtained:
Test in all cases: NCI-60 cell line screen, 48 h
SK-OV-3 = test system: SK-OV-3
BT-549 = test system: BT-549
786-0 = test system: 786-0
SK-MEL-28 = test system: SK-MEL-28
EKVX = test system: EKVX
HL-60 = test system: HL-60
A549 = test system: A549
IGROV-1 = test system: IGROV-1
SK-MEL-5 = test system: SK-MEL-5
SR = test system: SR
SF-539 = test system: SF-539
M14 = test system: M14
U-251 = test system: U-251
HCT-15 = test system: HCT-15
ACHN = test system: ACHN
OVCAR-3 = test system: OVCAR-3

Measured: GI50

CC(C)(C)OC(=O)NCCCCC(NC(=O)OCc1ccccc1)C(N)=O (stereo not drawn)
> 100 µM: HCT-15
inactive: SK-OV-3 > 100 µM | BT-549 > 100 µM | 786-0 > 100 µM | SK-MEL-28 > 100 µM | EKVX 82.2 µM | HL-60 > 100 µM | A549 > 100 µM | IGROV-1 > 100 µM | SK-MEL-5 58.3 µM | SR > 100 µM | SF-539 > 100 µM | M14 > 100 µM | U-251 > 100 µM | ACHN > 100 µM | OVCAR-3 > 100 µM

COC(=O)c1ccccc1C1CN=NC12Cc1c(ccc3c1CCC3)C2=O (stereo not drawn)
41.5 µM: HCT-15
inactive: SK-OV-3 > 100 µM | BT-549 92.7 µM | 786-0 > 100 µM | SK-MEL-28 95.1 µM | EKVX 45.9 µM | HL-60 23.4 µM | A549 > 100 µM | IGROV-1 88.7 µM | SK-MEL-5 25.4 µM | SR 46.2 µM | SF-539 > 100 µM | M14 46.5 µM | U-251 41 µM | ACHN 72.4 µM | OVCAR-3 96.2 µM

C=C(C)[C@@]1(O)O[C@H]2C[C@@]3(C)OC(=CC3=O)/C(C)=C\[C@@H]3OC(=O)[C@@]1(C)[C@H]32
inactive: SK-OV-3 47.4 µM | BT-549 8.89 µM | 786-0 11.7 µM | SK-MEL-28 12.6 µM | EKVX 29.2 µM | HL-60 14.2 µM | A549 29.2 µM | IGROV-1 15 µM | SK-MEL-5 13.3 µM | SR 6.97 µM | SF-539 23.9 µM | M14 14.9 µM | U-251 16.1 µM | ACHN 18.2 µM | OVCAR-3 15.5 µM
9.25 µM: HCT-15

COc1cc2cc(C(=O)N3CC(CCl)c4ccc([N+](C)(C)Cc5ccccc5[N+](=O)[O-])cc43)[nH]c2c(OC)c1OC (stereo not drawn)
active: A549 0.314 µM | SK-MEL-5 0.875 µM | SR 0.213 µM | ACHN 0.348 µM
2.14 µM: HCT-15
inactive: SK-OV-3 4.51 µM | BT-549 1.95 µM | 786-0 1.53 µM | SK-MEL-28 2.46 µM | EKVX 3.78 µM | HL-60 2.77 µM | IGROV-1 1.82 µM | SF-539 1.63 µM | M14 1.67 µM | U-251 2.18 µM | OVCAR-3 2.94 µM

CC1OC(O[C@@H]2OC=C(C=O)[C@@]3(O)CC[C@H](C)[C@@H]23)C(O)C(O)C1O (stereo partly drawn)
inactive: SK-OV-3 > 100 µM | BT-549 > 100 µM | 786-0 > 100 µM | SK-MEL-28 > 100 µM | EKVX > 100 µM | HL-60 > 100 µM | A549 > 100 µM | IGROV-1 > 100 µM | SK-MEL-5 > 100 µM | SR > 100 µM | SF-539 > 100 µM | M14 > 100 µM | U-251 > 100 µM | ACHN > 100 µM | OVCAR-3 > 100 µM
> 100 µM: HCT-15

NNc1nnc(-c2nnc(NN)o2)o1
> 10 µM: HCT-15
inactive: BT-549 > 10 µM | 786-0 > 10 µM | SK-MEL-28 > 10 µM | EKVX > 10 µM | HL-60 > 10 µM | A549 > 10 µM | IGROV-1 > 10 µM | SK-MEL-5 > 10 µM | SR > 10 µM | SF-539 > 10 µM | M14 > 10 µM | U-251 > 10 µM | ACHN > 10 µM | OVCAR-3 > 10 µM

O=c1[nH]cnc2c(C3OC(CO)C(O)C3O)c[nH]c12 (stereo not drawn)
inactive: SK-OV-3 > 100 µM | BT-549 > 100 µM | 786-0 > 100 µM | SK-MEL-28 > 100 µM | EKVX > 100 µM | HL-60 > 100 µM | A549 > 100 µM | IGROV-1 > 100 µM | SK-MEL-5 > 100 µM | SR > 100 µM | SF-539 > 100 µM | M14 > 100 µM | U-251 > 100 µM | ACHN > 100 µM | OVCAR-3 > 100 µM

CC(C)=CC(=O)c1[nH]c2ccccc2c1CC(=O)NCCc1c[nH]cn1
inactive: SK-OV-3 > 100 µM | BT-549 > 100 µM | 786-0 > 100 µM | SK-MEL-28 > 100 µM | EKVX > 100 µM | HL-60 > 100 µM | A549 > 100 µM | IGROV-1 > 100 µM | SK-MEL-5 > 100 µM | SR > 100 µM | SF-539 > 100 µM | M14 > 100 µM | U-251 > 100 µM | ACHN > 100 µM | OVCAR-3 > 100 µM
> 100 µM: HCT-15

CC(C(=O)O)C(C)(O)C(=O)O (stereo not drawn)
> 100 µM: HCT-15
inactive: SK-OV-3 > 100 µM | BT-549 > 100 µM | 786-0 > 100 µM | SK-MEL-28 > 100 µM | EKVX > 100 µM | HL-60 > 100 µM | A549 > 100 µM | IGROV-1 > 100 µM | SK-MEL-5 > 100 µM | SR > 100 µM | SF-539 > 100 µM | M14 > 100 µM | U-251 > 100 µM | OVCAR-3 > 100 µM

Sc1ncc2[nH]nnc2n1
inactive: BT-549 > 100 µM | 786-0 > 100 µM | SK-MEL-28 > 100 µM | EKVX > 100 µM | HL-60 > 100 µM | A549 > 100 µM | IGROV-1 > 100 µM | SK-MEL-5 > 100 µM | SR > 100 µM | SF-539 > 100 µM | U-251 > 100 µM | ACHN > 100 µM | OVCAR-3 > 100 µM
> 100 µM: HCT-15

C=CCOn1c(C=C)nc2c(C)cccc21
inactive: SK-OV-3 2.4 µM | BT-549 5.16 µM | 786-0 2.18 µM | SK-MEL-28 10.6 µM | EKVX 13.5 µM | HL-60 1.98 µM | A549 3.38 µM | IGROV-1 7.35 µM | SK-MEL-5 3.89 µM | SR 2.46 µM | M14 3.61 µM | U-251 1.98 µM | ACHN 2.62 µM | OVCAR-3 2.48 µM
3.07 µM: HCT-15

Cc1ccc2c(O)cc(-c3ccc4ccccc4c3)nc2n1
inactive: SK-OV-3 3.37 µM | BT-549 27.4 µM | 786-0 3.94 µM | SK-MEL-28 5.9 µM | EKVX 5.96 µM | HL-60 1.82 µM | A549 7.89 µM | IGROV-1 2.6 µM | SR 1.83 µM | SF-539 4.74 µM | M14 8.89 µM | ACHN 4.72 µM
3.54 µM: HCT-15

CC1OC(OC2C(OC(=O)[C@]34CCC(C)(C)C[C@H]3C3=CC[C@@H]5[C@@]6(C)CC[C@H](OC7OC(C(=O)O)C(O)C(O)C7O)C(C)(C)[C@@H]6CC[C@@]5(C)[C@]3(C)C[C@H]4O)OCC(O)C2O)C(O)C(O)C1OC1OCC(OC2OCC(O)C(O)C2O)C(O)C1O (stereo partly drawn)
inactive: SK-OV-3 13.8 µM | BT-549 3.28 µM | 786-0 11.1 µM | SK-MEL-28 3.44 µM | EKVX 4.16 µM | HL-60 3.96 µM | A549 3.9 µM | IGROV-1 12.8 µM | SK-MEL-5 13.9 µM | SR 7.23 µM | M14 3.52 µM | U-251 7.85 µM | ACHN 4.72 µM | OVCAR-3 15.9 µM
14.7 µM: HCT-15
